Test results published in US20190127805A1, “GENE SIGNATURES FOR CANCER DETECTION AND TREATMENT” (ALMAC DIAGNOSTICS LIMITED, priority 2016, published 2019).

Legend:
[1] = test system: OVCAR3-WT cells; assay: 10-day colony formation assay, OVCAR3-WT (cisplatin sensitive/naive); format: cell-based, human
Protocol: (§1) Cells were seeded at predetermined densities, 24 hours later treated with drug, which was replenished every 3-4 days. After 10 days, cells were washed with PBS, fixed in methanol, stained with crystal violet and colonies counted. The surviving fraction (SF) for a given dose was calculated and dose-response curves plotted and IC50 generated using Graph Pad Prism™ 5. Receiver operator curves (ROC) were plotted by dicotomising the IC50 values based on the median of the IC50 and defining the higher IC50 values as resistant and the lower IC50 values as sensitive. The gene signatures associated with the cell lines were plotted based on sensitive and resistant cells. Additionally ROCs were plotted by dicotomising the signature scores based on the median of the scores and defining the higher signature score as signature positive and the lower signature scores as signature negative. The IC50s associated with the cell lines were plotted based on signature positive and signature negative cells.

[2] = test system: OVCAR3-CP cells; assay: 10-day colony formation assay, OVCAR3-CP (cisplatin resistant); format: cell-based, human; settings: for fold change: cisplatin-resistant OVCAR3 relative to OVCAR3 cisplatin-naïve, colony formation
Protocol: as §1, with “negative cells. OVCAR3 and OVCAR4 cells were trypsinised and relevant cell numbers were seeded into P90 plates. Cells were allowed to adhere overnight. The following day media was removed and replaced with media containing 25 nM cisplatin. The concentration of cisplatin was increased every 2 weeks, doubling the concentration at every increment. Batches of cells were frozen every two weeks upon increasing the concentration of cisplatin. Once cells were stably growing at 200 nM cisplatin, sensitivity to cisplatin was tested by clonogenic assay. Cells were continuously grown in 200 nM cisplatin.” for “negative cells.”

[3] = test system: OVCAR3 and OVCAR4 cisplatin-resistant cells; assay: CellTiter Glo cell viability assay; format: cell-based; settings: Homo sapiens; 48 hour time point; cell line not stated in legend (FIG. 43A)
Protocol: Cells were trysanised and counted using the Countess™ Automated Cell Counter. 5,000 cells were seeded into each well of a 96 well plate. Cells were allowed to adhere overnight and were then treated with titrated concentrations of cisplatin, cedirianib and nintedanib (10 μM to 0.005 μM concentration). […] The 96 well plate was allowed to stand at room temperature for 20-30 mins. In the meantime the CellTiter-Glo Luminescent was allowed to thaw from the −20 freezer. Following the 20-30 minute incubation, 75 μl of the CellTiter-Glo Luminescent was added per well, this was then shaken for 2 minutes and then allowed to stand for 10 minutes. The analysis was performed using the Bioscience BioTek plate reader.

[4] = test system: OVCAR3 and OVCAR4 cisplatin-resistant cells; assay: Western blot of VEGFa protein expression; format: cell-based, human; settings: IC50 concentration; western blot (FIG. 43B)
[5] = test system: relapsed platinum sensitive epithelial ovarian cancer; settings: cited from earlier work
[6] = test system: OVCAR3-WT, OVCAR3-CP, OVCAR4-WT and OVCAR4-CP cells; assay: 10-day colony formation assay with ALM201 (FIG. 30c); format: cell-based, human; settings: OVCAR3 and OVCAR4 cells (FIG. 30c)
Protocol: as §1
OVCAR3 and OVCAR4 cells were trypsinised and relevant cell numbers were seeded into P90 plates. Cells were allowed to adhere overnight. The following day media was removed and replaced with media containing 25 nM cisplatin. The concentration of cisplatin was increased every 2 weeks, doubling the concentration at every increment. […]

[7] = test system: Kuramochi cells; assay: Western blot of EMT and MAPK pathway markers, Kuramochi cells; format: cell-based; settings: western blot (FIG. 30a)
[8] = test system: OVCAR3 cisplatin resistant cell line; assay: Western blot of EMT and MAPK pathway markers, OVCAR3 cisplatin resistant cells; format: cell-based, human; settings: 1 nM and 10 nM, 24 hour treatment; western blot (FIG. 30b)
[9] = test system: OVCAR3 platinum resistant cell line; assay: xCELLigence migration assay; format: cell-based, human; settings: 0.1 nM, 1 nM and 10 nM (p=0.08544, p=0.015522, p=0.036739) (FIG. 30d)
Protocol: The migration assay was performed using the xCELLigence RTCA DP system and carried out with CIM-plate 16 (ACEA Bioscience). Endothelial progenitor cell conditioned media, fresh endothelial media with growth factors (VEGF, IGF-1, bFGF, EGF) with 10% foetal bovine serum (FBS) and endothelial media with 10% foetal bovine serum (FBS) only, were the three chemo-attractant conditions used in the bottom chamber. 160 μl of the chemo-attractant was added to each bottom chamber of a CIM-plate 16. The CIM-Plate 16 is assembled by placing the top chamber onto the bottom chamber and snapping the two together. 30 μl pf serum-free medium is placed in the top chamber to hydrate and pre-incubate the membrane for 2 hours in the CO2 incubator at 37° C. before obtaining a background measurement. The protocol is optimised for the two paired cancer cell lines: OVCAR3, OVCAR4 parental and OVCAR3, OVCAR4 platinum resistant cell lines. […] Once the CIM-Plate 16 has been equilibrated, it is placed in the RTCA DP station and the background cell-index values are measured. […] The CIM-Plate 16 is placed in the RTCA DP station and migration is monitored every 5 minutes for several hours. […] For quantification of the migration rate, the slope of the curve was used to determine the rate if change in cell index. The average and standard deviation slope values were then quantified relative to the controls.

[10] = test system: OVCAR3 platinum resistant cell line; assay: xCELLigence invasion assay; format: cell-based, human; settings: 0.1 nM, 1 nM and 10 nM (p=0.0211, p=0.0026, p=0.3373) (FIG. 30d)
Protocol: The invasion assay was performed using the xCELLigence RTCA DP system and carried out with CIM-plate 16 (ACEA bioscience).
Normal cell media growth conditions (RPMI 1640, 1% L-Glut and 20% FCS) was the chemoattractant condition used in the bottom chamber. 160 μl of the chemoattractant was added to each bottom chamber of a CIM-plate 16. The CIM-Plate 16 is assembled by placing the top chamber onto the bottom chamber and snapping the two together. 20 μl Matrigel growth factor reduced (GFR) (phenol-red free) basement membrane matrix (Cornig, ref: 356231) was diluted in 400 μl optimem (serum free) giving a final working concentration of GFR Matrigel of 5%. […]
The protocol is optimized for the two paired cancer cell lines: OVCAR3, OVCAR4 parental and OVCAR3, OVCAR4 platinum resistant cell lines. […] Once the CIM-Plate 16 has been equilibrated, it is placed in the RTCA DP station and the background cell-index values are measured. […] The CIM-Plate 16 is placed in the RTCA DP station and migration is monitored every 5 minutes for several hours.
Each experimental condition was performed in triplicate. For quantification of the migration rate, the slope of the curve was used to determine the rate if change in cell index. The average and standard deviation slope values were then quantified relative to that at the control condition.

[11] = Homo sapiens, OVCAR-3, 240 h, OVCAR3 cisplatin-naïve, 10-day colony formation (FIG. 42)
[12] = Homo sapiens, OVCAR-3, 240 h, OVCAR3 cisplatin-resistant, 10-day colony formation (FIG. 42)

With `COc1cc2c(Oc3ccc4[nH]c(C)cc4c3F)ncnc2cc1OCCCN1CCCC1` [Cediranib] the IC50 [1, 11] was 4990 nM, the IC50 [2, 12] was 1190 nM and the fold change [2] was 0.2391. For the same compound, the IC50 [3] was 5570 nM, the “expression of the VEGFR ligand, VEGFa” value [4] was “downregulated” and the PFS ([5]; cediranib with platinum chemotherapy and maintenance (reference 9.4 months)) was 11.4 months. For the same compound, the overall survival ([5]; cediranib with platinum chemotherapy and maintenance (reference 17.6 months)) was 20.3 months, the “HR for PFS” value ([5]; p-value=0.0022) was 0.68 and the “HR for overall survival” value ([5]; p-value=0.0419) was 0.70.

In the case of `COC(=O)c1ccc2c(c1)NC(=O)/C2=C(\Nc1ccc(N(C)C(=O)CN2CCN(C)CC2)cc1)c1ccccc1` [Nintedanib], the IC50 [1, 11] is reported as > 10000 nM, the IC50 [2, 12] is reported as 3780 nM and the fold change [2] is reported as 0.377. The IC50 [3] was 9100 nM and the “expression of the VEGFR ligand, VEGFa” value [4] was “downregulated”.

For `N.N.[Cl][Pt][Cl]` [cisplatin], the IC50 ([1]; OVCAR3-WT, cisplatin alone) was 66 nM, the IC50 ([1]; OVCAR3-WT, cisplatin with addition of 0.5 uM Trametinib) was 33 nM and the “fold decrease in the IC50” value ([1]; OVCAR3-WT, following addition of Trametinib to cisplatin) was 2 fold. For the same compound, the IC50 ([1]; cisplatin sensitive OVCAR3 cells, colony formation (FIG. 2a)) was 66 nM, the IC50 ([2]; OVCAR3-CP, cisplatin with addition of Trametinib) was 60 nM and the “fold decrease in the IC50” value ([2]; OVCAR3-CP, following addition of Trametinib to cisplatin) was 4.8 fold. For the same compound, the IC50 ([2]; cisplatin resistant OVCAR3 cells, colony formation (FIG. 2a)) was 290 nM and the “fold difference in IC50 doses” value ([2]; cisplatin resistant vs cisplatin sensitive OVCAR3 cells) was 4.4 fold.

In the case of “IRQQPRDPPTETLELEVSPDPAS (listed as Homo sapiens) [ALM201]”, the proliferation capacity [6] is reported as “inhibited the proliferation capacity”, the EMT signalling [7] is reported as “reduced” and the MAPK signalling [7] is reported as “reduced”. The EMT markers [8] was “reversing EMT markers”, the MAPK pathway [8] was “downregulation of the MAPK pathway” and the migration potential [9] was “inhibited”. For the same compound, the invasion potential [10] was “inhibited”.
